The values below come from patent US9624182B2, “Compounds as lysophosphatidic acid receptor antagonists” (Amira Pharmaceuticals, Inc., priority 2009, dated 2017).

The target of the experiment is T1, human LPA1 (Homo sapiens, UniProt Q92633).
T1 construct: the full-length cDNA for human LPA1 was obtained by PCR of the reverse transcription reaction; expressed in transfected cells
T1 sequence (Q92633 whole entry): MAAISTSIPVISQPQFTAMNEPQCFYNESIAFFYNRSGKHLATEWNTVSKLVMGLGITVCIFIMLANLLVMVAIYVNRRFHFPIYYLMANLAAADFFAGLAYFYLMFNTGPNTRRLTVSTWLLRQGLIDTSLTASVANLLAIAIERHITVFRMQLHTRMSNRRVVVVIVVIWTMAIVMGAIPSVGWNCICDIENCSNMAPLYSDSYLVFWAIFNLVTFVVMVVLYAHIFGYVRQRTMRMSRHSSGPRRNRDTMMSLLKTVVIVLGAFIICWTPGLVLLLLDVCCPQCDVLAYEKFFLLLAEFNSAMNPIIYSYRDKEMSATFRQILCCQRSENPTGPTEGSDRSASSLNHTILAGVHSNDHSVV
Kind of experiment: LPA1 calcium flux assay. Format: cell-based. To be noted: CHO cells expressing human LPA1, stimulated with 10 nM LPA; read-out: HLPA1 Ca Flux IC50. The essentials: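 Antagonism measured as block of 10 nM LPA-evoked calcium rise in stable human LPA1-CHO cells. After overnight serum-free culture and 1 h dye loading at 37 °C (buffer with 0.3% fatty-acid-free albumin), compound was added for 30 min at room temperature. Titration curves gave IC50.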
Turning to `Cc1noc(-c2ccc(-c3ccc(C4(C(=O)O)CC4)cc3)cc2)c1NC(=O)NS(=O)(=O)c1ccccc1` [Compound 1-18, 1-{4′-[4-(3-Benzenesulfonyl-ureido)-3-methyl-isoxazol-5-yl]-biphenyl-4-yl}-cyclopropanecarboxylic acid], the IC50 is 1000 to 50000 nM.

Take `Cc1noc(-c2ccc(-c3ccc(C4(C(=O)O)CC4)cc3)cc2)c1C(=O)CCc1ccccc1` [Compound 1-157, 1-{4′-[3-Methyl-4-(3-phenyl-propionyl)-isoxazol-5-yl]-biphenyl-4-yl}-cyclopropanecarboxylic acid]: the half-maximal inhibitory concentration (IC50) lay within 1000 to 50000 nM.

As to `Cc1noc(-c2ccc(-c3ccc(C4(C(=O)O)CC4)cc3)cc2)c1CSCc1ccccc1` [Compound 1-50, 1-[4′-(4-Benzylsulfanylmethyl-3-methyl-isoxazol-5-yl)-biphenyl-4-yl]-cyclopropanecarboxylic acid], the IC50 was 1000 to 50000 nM.

`Cc1noc(-c2ccc(-c3ccc(CC(=O)O)cc3)cc2)c1NC(C)CCc1cccc(F)c1` (centres unmarked) [Compound 1-165, (4′-{4-[3-(3-Fluoro-phenyl)-1-methyl-propylamino]-3-methyl-isoxazol-5-yl}-biphenyl-4-yl)-acetic acid]: the IC50 was less than 300 nM.

`Cc1noc(-c2ccc(-c3ccc(C4(CC(=O)O)CC4)cc3)cc2)c1/C=C/CCc1ccccc1` [Compound 1-102, (1-{4′-[3-Methyl-4-((E)-4-phenyl-but-1-enyl)-isoxazol-5-yl]-biphenyl-4-yl}-cyclopropyl)-acetic acid]: the IC50 is 300 to 1000 nM.

As for `Cc1noc(-c2ccc(-c3ccc(C4(C(=O)O)CC4)cc3)cc2)c1C(O)C(=O)N(C)Cc1ccccc1` (centres unmarked) [Compound 1-258, 1-(4′-{4-[(Benzyl-methyl-carbamoyl)-hydroxy-methyl]-3-methyl-isoxazol-5-yl}-biphenyl-4-yl)-cyclopropanecarboxylic acid], the IC50 was less than 300 nM.

`CCCOc1cccc(Nc2c(C)noc2-c2ccc(-c3ccc(C4(C(=O)O)CC4)cc3)cc2)n1` [Compound 1-293, 1-{4′-[3-Methyl-4-(6-propoxy-pyridin-2-ylamino)-isoxazol-5-yl]-biphenyl-4-yl}-cyclopropanecarboxylic acid]: the IC50 was less than 300 nM.

In the case of `Cc1noc(-c2ccc(-c3ccc(C4(C(=O)O)CC4)cc3)cc2)c1CNC(=O)C1(c2ccccc2)CC1` [Compound 1-64, 1-[4′-(3-Methyl-4-{[(1-phenyl-cyclopropanecarbonyl)-amino]-methyl}-isoxazol-5-yl)-biphenyl-4-yl]-cyclopropanecarboxylic acid], the IC50 was less than 300 nM.

As to `Cc1noc(-c2ccc(-c3ccc(C4(C(=O)O)CC4)cc3)cc2)c1CNC(=O)C(C)(C)c1ccccc1` [Compound 1-98, 1-(4′-{3-Methyl-4-[(2-methyl-2-phenyl-propionylamino)-methyl]-isoxazol-5-yl}-biphenyl-4-yl)-cyclopropanecarboxylic acid], the IC50 is less than 300 nM.

On to `Cc1noc(-c2ccc(-c3ccc(C4(C(=O)O)CC4)cc3)cc2)c1CC(=O)N[C@H]1CCc2ccccc21` [Compound 1-99, 1-{4′-[4-((S)-Indan-1-ylcarbamoylmethyl)-3-methyl-isoxazol-5-yl]-biphenyl-4-yl}-cyclopropanecarboxylic acid], for which the IC50 was less than 300 nM.

Turning to `Cc1noc(-c2ccc(-c3ccc(C4(C(=O)O)CC4)cc3)cc2)c1NS(=O)(=O)Cc1ccccc1Cl` [Compound 1-14, 1-{4′-[4-(2-Chloro-phenylmethanesulfonylamino)-3-methyl-isoxazol-5-yl]-biphenyl-4-yl}-cyclopropanecarboxylic acid], the IC50 lay in the range of 300 to 1000 nM.

`CCC(C(=O)O)c1ccc(-c2ccc(-c3onc(C)c3CSCCc3ccccc3)cc2)cc1` (centres unmarked) [Compound 1-122, 2-[4′-(3-Methyl-4-phenethylsulfanylmethyl-isoxazol-5-yl)-biphenyl-4-yl]-butyric acid]: the IC50 was less than 300 nM.

Regarding `Cc1noc(-c2ccc(-c3ccc(CC(=O)O)cc3)cc2)c1C(O)CCCc1ccccc1` (single isomer, unassigned) [Compound 1-174, {4′-[4-(1-Hydroxy-4-phenyl-butyl)-3-methyl-isoxazol-5-yl]-biphenyl-4-yl}-acetic acid], the IC50 was less than 300 nM.

For `Cc1noc(-c2ccc(-c3ccc(C4(C(=O)O)CC4)cc3)cc2)c1NC(=O)Nc1cccc(Br)c1` [Compound 1-308, 1-(4′-{4-[3-(3-Bromo-phenyl)-ureido]-3-methyl-isoxazol-5-yl}-biphenyl-4-yl)-cyclopropanecarboxylic acid], the IC50 was less than 300 nM.

On to `Cc1noc(-c2ccc(-c3ccc(C4(C(=O)O)CC4)cc3)cc2)c1CNC(=O)Cc1ccccc1` [Compound 1-58, 1-{4′-[3-Methyl-4-(phenylacetylamino-methyl)-isoxazol-5-yl]-biphenyl-4-yl}-cyclopropanecarboxylic acid], for which the IC50 is less than 300 nM.

In the case of `Cc1noc(-c2ccc(-c3ccc(C4(CC(=O)O)CC4)cc3)cc2)c1NC(C)c1ccc2ccccc2c1` (centres unmarked) [Compound 1-206, (1-{4′-[3-Methyl-4-(1-naphthalen-2-yl-ethylamino)-isoxazol-5-yl]-biphenyl-4-yl}-cyclopropyl)-acetic acid], the IC50 is less than 300 nM.

Turning to `Cc1noc(-c2ccc(-c3ccc(C4(C(=O)O)CC4)cc3)cc2)c1C(O)C/C=C/c1ccccc1` (centres unmarked) [Compound 1-115, 1-{4′-[4-((E)-1-Hydroxy-4-phenyl-but-3-enyl)-3-methyl-isoxazol-5-yl]-biphenyl-4-yl}-cyclopropanecarboxylic acid], the IC50 was less than 300 nM.

On to `Cc1noc(-c2ccc(-c3ccc(C4(C(=O)O)CC4)cc3)cc2)c1CSCC(=O)c1ccccc1` [Compound 1-120, 1-{4′-[3-Methyl-4-(2-oxo-2-phenyl-ethylsulfanylmethyl)-isoxazol-5-yl]-biphenyl-4-yl}-cyclopropanecarboxylic acid], for which the IC50 was 1000 to 50000 nM.

Turning to `Cc1noc(-c2ccc(-c3ccc(C4(CC(=O)NS(C)(=O)=O)CC4)cc3)cc2)c1C(O)CCCc1ccccc1` (centres unmarked) [Compound 2-16, N-[2-(1-{4′-[4-(1-Hydroxy-4-phenyl-butyl)-3-methyl-isoxazol-5-yl]-biphenyl-4-yl}-cyclopropyl)-acetyl]-methanesulfonamide], the IC50 is less than 300 nM.

Regarding `Cc1noc(-c2ccc(-c3ccc(C4(CC(=O)O)CC4)cc3)cc2)c1C(O)CCCc1ccccc1` (centres unmarked) [Compound 1-140, (1-{4′-[4-(1-Hydroxy-4-phenyl-butyl)-3-methyl-isoxazol-5-yl]-biphenyl-4-yl}-cyclopropyl)-acetic acid], the IC50 was less than 300 nM.

Turning to `Cc1noc(-c2ccc(-c3ccc(C4(C(=O)O)CC4)cc3)cc2)c1C(O)CN` (centres unmarked) [Compound 1-190, 1-{4′-[4-(2-Amino-1-hydroxy-ethyl)-3-methyl-isoxazol-5-yl]-biphenyl-4-yl}-cyclopropanecarboxylic acid], the IC50 was less than 300 nM.

Consider `Cc1noc(-c2ccc(-c3ccc(C4(C(=O)O)CC4)cc3)cc2)c1/C=C/S(=O)(=O)Cc1ccccc1` [Compound 1-259, 1-{4′-[3-Methyl-4-((E)-2-phenylmethanesulfonyl-vinyl)-isoxazol-5-yl]-biphenyl-4-yl}-cyclopropanecarboxylic acid], for which the IC50 fell in the range of 1000 to 50000 nM.

For the compound `Cc1noc(-c2ccc(-c3ccc(C4(C(=O)O)CC4)cc3)cc2)c1CSCC(C)C` [Compound 1-96, 1-[4′-(4-Isobutylsulfanylmethyl-3-methyl-isoxazol-5-yl)-biphenyl-4-yl]-cyclopropanecarboxylic acid], the IC50 was less than 300 nM.
